Values quoted from earlier work as cited in patent US20230255250A1, “COMPOSITION FOR NUTRITIONAL SUPPLEMENTATION THAT PREVENTS DAMAGE CAUSED BY OXIDATIVE STRESS, HAVING AS PRINCIPLES XANTHOPHYLLS FROM MICROALGAE” (priority 2022, published 2023).

What was measured:
[1] = water at room temperature
[2] = doses less than 500 mg/kg intravenously

solubility in water [1]: greater than 500 mg/mL
Substance: 2-Hydroxylpropyl-beta-cyclodextrin [HP-β-CD]
proliferation and activation of T lymphocytes (T lymphocytes): induces proliferation and activation
toxicity [2]: not toxic
regulation of molecules such as MHC proteins, and of PD-L1/L2 (dendritic cells; HP-β-CD stimulated dendritic cells): remarkable regulation
production of IL-6 (dendritic cells; treated with HP-β-CD): increased
production of IL-10 (dendritic cells; treated with HP-β-CD): increased
production of TNF-α (dendritic cells; treated with HP-β-CD): increased
